US11459546B2, “Method for producing somatic cell, somatic cell, and composition” (Kyoto Prefectural Public University Corporation, priority 2016, dated 2022)

Test system: Human skin fibroblasts
Experiment: Direct transformation from human fibroblast to brown adipocyte (Example B)
Type: cell-based
Design: key: the mark “++++” indicates that almost all of the fibroblasts were transformed into brown adipocytes; +++: the larger the number of the marks “+” is, the higher the transformation efficiency is; ++: the larger the number of the marks “+” is, the higher the transformation efficiency is; the larger the number of the marks “+” is, the higher the transformation efficiency is; The mark “−” indicates that the fibroblasts were not transformed into brown adipocytes
Settings: fibroblast of subject; judged from UCP1 immunostaining and cell states, FIG. 4 to FIG. 8
Description: Human skin fibroblasts were purchased from DS Pharma Biomedical Co., Ltd. Cell information is described in the following table.
About 1.5×10^5 cells were seeded on a 35 mm dish containing a high-glucose DMEM medium (11995-065, Gibco, MA, USA) to which 10% fetal bovine serum (FBS) (HyClone, Utah, USA) and penicillin/streptomycin (Gibco) were added.
After each of the human fibroblasts reached 80-90% confluence, the medium was changed to start direct transformation into the brown adipocyte. The adipocyte medium for use was prepared by adding an additive reagent containing ascorbic acid, biotin, pantothenic acid, triiodothyronine, octanoic acid, insulin, dexamethasone, IBLMX (3-isobutyl-1-methylxanthine), FBS and penicillin/streptomycin (MK425, Takara Bio Inc.) to a high-glucose DMEM medium (043-30085, Wako Pure Chemical Industries, Ltd.). […]
Immunocytochemistry was performed in accordance with a previous report (Dai P, et al. J Clin Biochem Nutr. 2015; 56 (3): 166-70). […] All images were acquired using a fluorescence microscope (Axio Vert. A1, Carl Zeiss, Oberkochen, Germany). […]
The efficiencies of transformation into the adipocyte-like cells with various combinations of the compounds were evaluated from the results shown in FIG. 4 to FIG. 8, and the results are shown in the following table. […]

## CN(CCOc1ccc(CC2SC(=O)NC2=O)cc1)c1ccccn1 (stereo not shown) [Ro only, Rosiglitazone]
  Efficiency (transformation into the adipocyte-like cells): −
